Reference: US9828385B2, “Spiro-oxazolones” (Hoffmann-La Roche Inc., priority 2014, dated 2017)

Target: T1, human V1a receptor (Homo sapiens, UniProt P37288)
T1 construct: expressed in transfected cells; host or cells: HEK293 cells, transiently transfected; cell membranes
Assay: human V1a receptor binding studies (3H-Vasopressin, SPA beads)
Conditions: membranes of HEK293 cells transiently transfected with human V1a receptor, Ki by Cheng-Prussoff from IC50, read-out: pKi hV1a (converted)
Procedure, shortened: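 Membranes from transiently transfected HEK293 cells expressing cloned human V1a receptor, on yttrium silicate SPA beads, competed against 4 nM 3H-vasopressin (added stock concentration) in Tris buffer with NaCl, KCl, CaCl2, MgCl2 for 1 h at room temperature. Nonspecific binding with cold vasopressin; IC50 by nonlinear fit, Ki via Cheng-Prusoff.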

T1 sequence (P37288 whole entry): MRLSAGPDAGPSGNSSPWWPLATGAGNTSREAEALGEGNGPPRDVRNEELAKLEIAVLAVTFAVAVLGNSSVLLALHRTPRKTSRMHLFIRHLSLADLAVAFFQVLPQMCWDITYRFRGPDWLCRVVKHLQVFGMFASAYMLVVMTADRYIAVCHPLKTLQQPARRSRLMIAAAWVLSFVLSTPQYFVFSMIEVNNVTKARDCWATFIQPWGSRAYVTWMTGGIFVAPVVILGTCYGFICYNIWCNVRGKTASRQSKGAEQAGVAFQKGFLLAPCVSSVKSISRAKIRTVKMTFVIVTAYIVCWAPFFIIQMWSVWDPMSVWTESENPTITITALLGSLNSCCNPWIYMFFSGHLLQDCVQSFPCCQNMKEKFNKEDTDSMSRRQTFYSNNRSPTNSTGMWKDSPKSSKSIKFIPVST

| Structure (SMILES) | Ki [µM] |
| --- | --- |
| CC#CCC1OC(N2CCC3(CC2)OCc2ccccc23)=NC1=O (stereo not shown) [Example 11, 5-(But-2-yn-1-yl)-2-(1′H,3H-spiro[2-benzofuran-1,4′-piperidin]-1′-yl)-1,3-oxazol-4(5H)-one] | 0.0501 |
| O=C1N=C(N2CCC3(CC2)OCc2ccccc23)OC1c1ccccc1 (stereo not shown) [Example 12, 5-Phenyl-2-(1′H,3H-spiro[2-benzofuran-1,4′-piperidin]-1′-yl)-1,3-oxazol-4(5H)-one] | 0.316 |
| O=C1N=C(N2CCC3(CC2)OCc2ccccc23)OC1Cc1ccccc1 (stereo not shown) [Example 17, 5-Benzyl-2-(1′H,3H-spiro[2-benzofuran-1,4′-piperidin]-1′-yl)-1,3-oxazol-4(5H)-one] | 0.00398 |
| O=C1N=C(N2CCC3(CC2)OCc2ccccc23)O[C@@H]1Cc1ccccc1 [Example 18, (+)-(5R)-5-Benzyl-2-(1′H,3H-spiro[2-benzofuran-1,4′-piperidin]-1′-yl)-1,3-oxazol-4(5H)-one] | 0.00158 |
| O=C1N=C(N2CCC3(CC2)OCc2ccccc23)O[C@H]1Cc1ccccc1 [Example 19, (−)-(5S)-5-Benzyl-2-(1′H,3H-spiro[2-benzofuran-1,4′-piperidin]-1′-yl)-1,3-oxazol-4(5H)-one] | 0.0251 |
| CC1OC2(CCN(C3=NC(=O)C(Cc4ccccc4)O3)CC2)c2ccccc21 (stereo not shown) [Example 22, 5-Benzyl-2-(3-methyl-1′H,3H-spiro[2-benzofuran-1,4′-piperidin]-1′-yl)-1,3-oxazol-4(5H)-one] | 0.00126 |
| O=C1N=C(N2CCC3(CC2)OCc2cccc(F)c23)OC1Cc1ccccc1 (stereo not shown) [Example 23, 5-Benzyl-2-(7-fluoro-1′H,3H-spiro[2-benzofuran-1,4′-piperidin]-1′-yl)-1,3-oxazol-4(5H)-one] | 0.00251 |
| O=C1N=C(N2CCC3(CC2)OCc2c(F)cccc23)OC1Cc1ccccc1 (stereo not shown) [Example 24, 5-Benzyl-2-(4-fluoro-1′H,3H-spiro[2-benzofuran-1,4′-piperidin]-1′-yl)-1,3-oxazol-4(5H)-one] | 0.00631 |
| O=C1N=C(N2CCC3(CC2)OCc2ccc(F)cc23)OC1Cc1ccccc1 (stereo not shown) [Example 25, 5-Benzyl-2-(6-fluoro-1′H,3H-spiro[2-benzofuran-1,4′-piperidin]-1′-yl)-1,3-oxazol-4(5H)-one] | 0.00631 |
| CC1(C)OC2(CCN(C3=NC(=O)C(Cc4ccccc4)O3)CC2)c2ccccc21 (stereo not shown) [Example 26, 5-Benzyl-2-(3,3-dimethyl-1′H,3H-spiro[2-benzofuran-1,4′-piperidin]-1′-yl)-1,3-oxazol-4(5H)-one] | 0.000631 |
| O=C1OC2(CCN(C3=NC(=O)C(Cc4ccccc4)O3)CC2)c2ccc(F)cc21 (stereo not shown) [Example 27, 1′-(5-Benzyl-4-oxo-4,5-dihydro-1,3-oxazol-2-yl)-5-fluoro-3H-spiro[2-benzofuran-1,4′-piperidin]-3-one] | 0.0158 |
| O=C1N=C(N2CCC3(CC2)OCc2ncccc23)OC1Cc1ccccc1 (stereo not shown) [Example 28, 5-Benzyl-2-(1′H,7H-spiro[furo[3,4-b]pyridine-5,4′-piperidin]-1′-yl)-1,3-oxazol-4(5H)-one] | 0.0794 |
| O=C1N=C(N2CCC3(CC2)OCc2cccnc23)OC1Cc1ccccc1 (stereo not shown) [Example 29, 5-Benzyl-2-(1′H,5H-spiro[furo[3,4-b]pyridine-7,4′-piperidin]-1′-yl)-1,3-oxazol-4(5H)-one] | 0.01 |
| O=C1OC2(CCN(C3=NC(=O)C(Cc4ccccc4)O3)CC2)c2cccc(F)c21 (stereo not shown) [Example 30, 1′-(5-Benzyl-4-oxo-4,5-dihydro-1,3-oxazol-2-yl)-4-fluoro-3H-spiro[2-benzofuran-1,4′-piperidin]-3-one] | 0.2 |
| COc1ccc2c(c1)C(=O)OC21CCN(C2=NC(=O)C(Cc3ccccc3)O2)CC1 (stereo not shown) [Example 31, 1′-(5-Benzyl-4-oxo-4,5-dihydro-1,3-oxazol-2-yl)-5-methoxy-3H-spiro[2-benzofuran-1,4′-piperidin]-3-one] | 0.1 |
| O=C1OC2(CCN(C3=NC(=O)C(Cc4ccccc4)O3)CC2)c2ccc(Br)cc21 (stereo not shown) [Example 32, 1′-(5-Benzyl-4-oxo-4,5-dihydro-1,3-oxazol-2-yl)-5-bromo-3H-spiro[2-benzofuran-1,4′-piperidin]-3-one] | 0.0631 |
| O=C1N=C(N2CCC3(CC2)SCc2ccccc23)OC1Cc1ccccc1 (stereo not shown) [Example 33, 5-Benzyl-2-(1′H,3H-spiro[2-benzothiophene-1,4′-piperidin]-1′-yl)-1,3-oxazol-4(5H)-one] | 0.0126 |
| O=C1N=C(N2CCC3(CC2)c2ccccc2CS3(=O)=O)OC1Cc1ccccc1 (stereo not shown) [Example 34, 5-Benzyl-2-(2,2-dioxido-1′H,3H-spiro[2-benzothiophene-1,4′-piperidin]-1′-yl)-1,3-oxazol-4(5H)-one] | 0.01 |
| O=C1N=C(N2CCC3(CC2)OCc2ccccc23)OC1Cc1ccc(Cl)cc1 (stereo not shown) [Example 35, 5-(4-Chlorobenzyl)-2-(1′H,3H-spiro[2-benzofuran-1,4′-piperidin]-1′-yl)-1,3-oxazol-4(5H)-one] | 0.002 |
| O=C1N=C(N2CCC3(CC2)OCc2ccccc23)OC1C(O)c1ccc(Cl)cc1 (stereo not shown) [Example 40, 5-[(4-Chlorophenyl)(hydroxy)methyl]-2-(1′H,3H-spiro[2-benzofuran-1,4′-piperidin]-1′-yl)-1,3-oxazol-4(5H)-one] | 0.00398 |
| CC(=O)OC(c1ccc(Cl)cc1)C1OC(N2CCC3(CC2)OCc2ccccc23)=NC1=O (stereo not shown) [Example 41, (4-Chlorophenyl)[4-oxo-2-(1′H,3H-spiro[2-benzofuran-1,4′-piperidin]-1′-yl)-4,5-dihydro-1,3-oxazol-5-yl]methyl acetate] | 0.0316 |
| C=CCC1(CC(=C)F)OC(N2CCC3(CC2)OCc2ccccc23)=NC1=O (stereo not shown) [Example 54, 5-Allyl-5-(2-fluoroallyl)-2-(3H-spiro[isobenzofuran-1,4′-piperidine]-1′-yl)oxazol-4(5H)-one] | 0.631 |

Further lines, results first:

| Ki [µM] | Structure (SMILES) |
| --- | --- |
| 0.00501 | CC#CCC1(CC#CC)OC(N2CCC3(CC2)OCc2ccccc23)=NC1=O [Example 55, 5,5-Di(but-2-ynyl)-2-(3H-spiro[isobenzofuran-1,4′-piperidine]-1′-yl)oxazol-4(5H)-one] |
| 0.0158 | C=C(C)CC1(CC(=C)C)OC(N2CCC3(CC2)OCc2ccccc23)=NC1=O [Example 56, 5,5-bis(2-Methylprop-2-en-1-yl)-2-(1′H,3H-spiro[2-benzofuran-1,4′-piperidin]-1′-yl)-1,3-oxazol-4(5H)-one] |
| 0.0398 | C#CCC1(CC=C)OC(N2CCC3(CC2)OCc2ccccc23)=NC1=O (stereo not shown) [Example 57, 5-(Prop-2-en-1-yl)-5-(prop-2-yn-1-yl)-2-(1′H,3H-spiro[2-benzofuran-1,4′-piperidin]-1′-yl)-1,3-oxazol-4(5H)-one] |
| 0.0501 | C=CCC1(CC=C)OC(N2CCC3(CC2)OCc2ccccc23)=NC1=O [Example 58, 5,5-Di(prop-2-en-1-yl)-2-(1′H,3H-spiro[2-benzofuran-1,4′-piperidin]-1′-yl)-1,3-oxazol-4(5H)-one] |
| 0.01 | C=CCC1(CC(=C)C)OC(N2CCC3(CC2)OCc2ccccc23)=NC1=O (stereo not shown) [Example 59, 5-Allyl-5-(2-methylallyl)-2-(1′H,3H-spiro[2-benzofuran-1,4′-piperidin]-1′-yl)-1,3-oxazol-4(5H)-one] |
| 0.0251 | C=CCC1(CC(=C)C(F)(F)F)OC(N2CCC3(CC2)OCc2ccccc23)=NC1=O (stereo not shown) [Example 60, 5-(Prop-2-en-1-yl)-2-(1′H,3H-spiro[2-benzofuran-1,4′-piperidin]-1′-yl)-5-[2-(trifluoromethyl)prop-2-en-1-yl]-1,3-oxazol-4(5H)-one] |
| 0.794 | C=CCC1(CC(=C)C(=O)OCC)OC(N2CCC3(CC2)OCc2ccccc23)=NC1=O (stereo not shown) [Example 61, Ethyl 2-{[4-oxo-5-(prop-2-en-1-yl)-2-(1′H,3H-spiro[2-benzofuran-1,4′-piperidin]-1′-yl)-4,5-dihydro-1,3-oxazol-5-yl]methyl}prop-2-enoate] |
| 0.631 | C#CCC1(CC(=C)C(=O)OCC)OC(N2CCC3(CC2)OCc2ccccc23)=NC1=O (stereo not shown) [Example 62, Ethyl 2-((4-oxo-5-(prop-2-ynyl)-2-(3H-spiro[isobenzofuran-1,4′-piperidine]-1′-yl)-4,5-dihydrooxazol-5-yl)methyl)acrylate] |
| 0.0126 | C=CCC1(CC(=C)Br)OC(N2CCC3(CC2)OCc2ccccc23)=NC1=O (stereo not shown) [Example 63, 5-(2-Bromoprop-2-en-1-yl)-5-(prop-2-en-1-yl)-2-(1′H,3H-spiro[2-benzofuran-1,4′-piperidin]-1′-yl)-1,3-oxazol-4(5H)-one] |
| 0.0126 | C=C(CC1(CC(=C)C(F)(F)F)OC(N2CCC3(CC2)OCc2ccccc23)=NC1=O)C(F)(F)F [Example 64, 2-(3H-Spiro[isobenzofuran-1,4′-piperidine]-1′-yl)-5,5-bis(2-(trifluoromethyl)allyl)oxazol-4(5H)-one] |
| 0.0631 | C=CCC1(CC(=C)CO[Si](C)(C)C(C)(C)C)OC(N2CCC3(CC2)OCc2ccccc23)=NC1=O (stereo not shown) [Example 65, 5-[2-({[tert-Butyl(dimethyl)silyl]oxy}methyl)prop-2-en-1-yl]-5-(prop-2-en-1-yl)-2-(1′H,3H-spiro[2-benzofuran-1,4′-piperidin]-1′-yl)-1,3-oxazol-4(5H)-one] |
| 0.0398 | CCCCC1(C)OC(N2CCC3(CC2)OCc2ccccc23)=NC1=O (stereo not shown) [Example 66, 5-Butyl-5-methyl-2-(1′H,3H-spiro[2-benzofuran-1,4′-piperidin]-1′-yl)-1,3-oxazol-4(5H)-one] |
| 0.316 | CCCCC1(C)OC(N2CCC3(CC2)OC(=O)c2ccccc23)=NC1=O (stereo not shown) [Example 69, 1′-(5-Butyl-5-methyl-4-oxo-4,5-dihydro-1,3-oxazol-2-yl)-3H-spiro[2-benzofuran-1,4′-piperidin]-3-one] |
| 0.01 | CCC1(Cc2ccccc2)OC(N2CCC3(CC2)OCc2ccccc23)=NC1=O (stereo not shown) [Example 74, 5-Benzyl-5-ethyl-2-(1′H,3H-spiro[2-benzofuran-1,4′-piperidin]-1′-yl)-1,3-oxazol-4(5H)-one] |
| 0.00398 | CC1(Cc2ccc(Cl)cc2)OC(N2CCC3(CC2)OCc2ccccc23)=NC1=O (stereo not shown) [Example 75, 5-(4-Chlorobenzyl)-5-methyl-2-(1′H,3H-spiro[2-benzofuran-1,4′-piperidin]-1′-yl)-1,3-oxazol-4(5H)-one] |
